The test system of data set [1] is mouse. Put plainly: Acute toxicity, infusion into the tail vein of a test mouse. In kind it is in vivo. The protocol: The experiment for determining acute toxicity is carried out by infusing this compound into the tail vein of a test mouse in the amount of 5 mg/kg of body weight.
The nature of data set [2]: Solubility in water. The class given is physicochemical.
Data set [3] is described as follows: Stability in pharmaceutical preparations. The class given is physicochemical. As to conditions: when used in pharmaceutical preparations.
Data set [4] concerns blood glucose levels. Briefly: Arginine-induced changes in blood glucose in rats (glucose oxidase method). The class given is in vivo, rat. The protocol: (§1) Studies were made of the effects of the compound of this invention on arginine-induced changes in blood glucose, insulin and glucagon levels and the results obtained were compared with those of somatostatin.
(§2) Male SD rats weighing 300 to 500 g were anesthetized with sodium pentobarbital (60 mg/kg of body weight, by intraabdominal puncture) and polyethylene catheters were placed in their carotid artery. Saline was infused over 10 minutes, and arginine was infused at a rate of 3 g/kg/hr, for 60 minutes, using an infusion pump (at a rate of 4.5 ml/kg/hr). For 30 minutes, immediately after the start of arginine infusion, somatostatin or the compound of this invention was infused at rates of 4 μg/kg/hr, as a basal dose, 40 μg/kg/hr as 10 times as the basal dose, and 400 μg/kg/hr, as 100 times as the basal dose, respectively.
(§3) Before and 15 minutes, 30 minutes and 60 minutes after the start of arginine infusion, blood samples were taken in the presence of heparine. Blood glucose values were measured by the glucose oxidase method, and blood insulin and glucagon values were measured by the radioimmunoassay method.

The subject of data set [5] is blood insulin levels. Put plainly: Arginine-induced changes in blood insulin in rats (radioimmunoassay). The class given is in vivo, rat. The protocol:
as §1, §2, §3

Data set [6] concerns blood glucagon levels. Briefly: Arginine-induced changes in blood glucagon in rats (radioimmunoassay). In kind it is in vivo, rat. The procedure: as §1, §2, §3
Where [7] appears, read: rats, arginine 3 g/kg/hr, substance infused for 30 minutes.

Peptide text beside a SMILES is read from it.

Regarding `C[C@@H](O)[C@@H]1NC(=O)[C@H](CCCCN)NC(=O)[C@@H](Cc2c[nH]c3ccccc23)NC(=O)[C@H](Cc2ccccc2)NC(=O)[C@H](Cc2ccccc2)NC(=O)[C@H](CC(N)=O)NC(=O)[C@H](CCCCN)NC(=O)CCCCC[C@H](C(=O)O)NC(=O)[C@H](CO)NC(=O)[C@H]([C@@H](C)O)NC(=O)[C@H](Cc2ccccc2)NC1=O` [the compound of this invention, Des-(Ala^1,Gly^2)-(D-Trp^8,D-Asu^3,14)-somatostatin] (HELM PEPTIDE1{K.N.F.F.[dW].K.T.F.T.S.[O=C(O)[C@@H](CCCCCC(=O)[*:3])N[*:1]]}$PEPTIDE1,PEPTIDE1,1:R1-11:R3$$$V2.0), in data set [1] (tail vein infusion, 5 mg/kg of body weight), the “changes or side effects in respect of body weight, body temperature and blood sugar value” is reported as “No significant changes or side effects were observed”. For the same molecule, in data set [1] (tail vein, concluded from the 5 mg/kg experiment), the acute toxicity entry is “considered to be insignificant”. Moreover, the solubility in water entry in data set [2] is listed as “soluble in water”. Besides, in data set [3], the “stability compared with somatostatin” value is on record as “far superior to somatostatin”.

Regarding `C[C@H](N)C(=O)NCC(=O)N[C@H]1CSSC[C@@H](C(=O)O)NC(=O)[C@H](CO)NC(=O)[C@H]([C@@H](C)O)NC(=O)[C@H](Cc2ccccc2)NC(=O)[C@H]([C@@H](C)O)NC(=O)[C@H](CCCCN)NC(=O)[C@H](Cc2c[nH]c3ccccc23)NC(=O)[C@H](Cc2ccccc2)NC(=O)[C@H](Cc2ccccc2)NC(=O)[C@H](CC(N)=O)NC(=O)[C@H](CCCCN)NC1=O` [somatostatin], the “blood glucose level versus control” value in data set [4] (at 100 times the basal dose (basal 4 μg/kg/hr), 30 minutes after start of arginine infusion) is listed as “Statistically significant low levels of blood glucose”; in data set [4] (at more than 10 times the basal dose (basal 4 μg/kg/hr), 15 minutes after start of arginine infusion) it was “Statistically significant low levels of blood glucose”. In addition, in data set [4] (setting [7]), the “rise in blood glucose levels induced by arginine” value is reported as “inhibited”. The “effect after the suspension of infusion” value in data set [5] (15 minutes after the suspension of infusion, conclusion on insulin and glucagon) is listed as “its effect was no longer observed”. For the same molecule, in data set [5] (45 minutes after start of arginine infusion = 15 minutes after suspension of substance infusion), the “effect on blood insulin level after suspension of infusion” value is reported as “failed to exert its effect”. The “rise in blood insulin levels versus control” value in data set [5] (at more than 10 times the basal dose, 15 minutes after start of arginine infusion) is “significantly inhibited”; in data set [5] (at more than 100 times the basal dose, 30 minutes after start of arginine infusion), “significantly inhibited”. Moreover, the “rise in blood insulin levels (insulin secretion) enhanced by arginine” value in data set [5] (setting [7]) is on record as “inhibited the rise in blood insulin levels dose dependently”. In addition, in data set [6] (45 minutes after start of arginine infusion), the “effect on blood glucagon level” value was “lost its effect”. For the same molecule, the “blood glucagon level versus control” value in data set [6] (at more than 10 times the basal dose, 15 minutes and 30 minutes after start of arginine infusion) is on record as “significantly lowered its level”.

The values above are taken from patent US4261885A, “Novel somatostatin analogue” (Shiraimatsu Shingaku Co., Ltd., priority 1978, dated 1981).
